In PubChem BioAssay (NCI):
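Test compounds were applied to cells in 96-well plates for 48 hours at 5 doses. GI50: concentration for 50% inhibition of growth. TGI denotes the concentration required for complete inhibition of growth.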

Experiments:
Assay in all cases: NCI-60 cell line screen, 48 h
786-0 renal = tested on: 786-0 renal
A498 renal = tested on: A498 renal
A549 NSCLC = tested on: A549 NSCLC
ACHN renal = tested on: ACHN renal
BT-549 breast = tested on: BT-549 breast
CAKI-1 renal = tested on: CAKI-1 renal
CCRF-CEM leukemia = tested on: CCRF-CEM leukemia
COLO 205 colon = tested on: COLO 205 colon
DU-145 prostate = tested on: DU-145 prostate
EKVX NSCLC = tested on: EKVX NSCLC
HCC-2998 colon = tested on: HCC-2998 colon
HCT-116 colon = tested on: HCT-116 colon
HCT-15 colon = tested on: HCT-15 colon
HL-60(TB) leukemia = tested on: HL-60(TB) leukemia
HOP-62 NSCLC = tested on: HOP-62 NSCLC
HOP-92 NSCLC = tested on: HOP-92 NSCLC
HS 578T breast = tested on: HS 578T breast
HT29 colon = tested on: HT29 colon
IGROV1 ovarian = tested on: IGROV1 ovarian
K-562 leukemia = tested on: K-562 leukemia
KM12 colon = tested on: KM12 colon
LOX IMVI melanoma = tested on: LOX IMVI melanoma
M14 melanoma = tested on: M14 melanoma
MALME-3M melanoma = tested on: MALME-3M melanoma
MCF7 breast = tested on: MCF7 breast
MDA-MB-231 breast = tested on: MDA-MB-231 breast
MDA-MB-435 = tested on: MDA-MB-435
MOLT-4 leukemia = tested on: MOLT-4 leukemia
NCI-H226 lung = tested on: NCI-H226 lung
NCI-H23 lung = tested on: NCI-H23 lung
NCI-H460 lung = tested on: NCI-H460 lung
NCI-H522 lung = tested on: NCI-H522 lung
NCI/ADR-RES ovarian = tested on: NCI/ADR-RES ovarian
OVCAR-3 ovarian = tested on: OVCAR-3 ovarian
OVCAR-4 ovarian = tested on: OVCAR-4 ovarian
OVCAR-5 ovarian = tested on: OVCAR-5 ovarian
OVCAR-8 ovarian = tested on: OVCAR-8 ovarian
PC-3 prostate = tested on: PC-3 prostate
RPMI-8226 leukemia = tested on: RPMI-8226 leukemia
RXF 393 renal = tested on: RXF 393 renal
SF-268 CNS = tested on: SF-268 CNS
SF-295 CNS = tested on: SF-295 CNS
SF-539 CNS = tested on: SF-539 CNS
SK-MEL-2 melanoma = tested on: SK-MEL-2 melanoma
SK-MEL-28 melanoma = tested on: SK-MEL-28 melanoma
SK-MEL-5 melanoma = tested on: SK-MEL-5 melanoma
SK-OV-3 ovarian = tested on: SK-OV-3 ovarian
SN12C renal = tested on: SN12C renal
SNB-19 CNS = tested on: SNB-19 CNS
SNB-75 CNS = tested on: SNB-75 CNS
SR leukemia = tested on: SR leukemia
SW-620 colon = tested on: SW-620 colon
T-47D breast = tested on: T-47D breast
TK-10 renal = tested on: TK-10 renal
U251 CNS = tested on: U251 CNS
UACC-257 melanoma = tested on: UACC-257 melanoma
UACC-62 melanoma = tested on: UACC-62 melanoma
UO-31 renal = tested on: UO-31 renal

SMILES: CCN(Cc1ccc(C)cc1)c1ccc(CO)c(Cl)c1
- GI50 (786-0 renal): 4.32 µM
- TGI (786-0 renal): 19.3 µM
- GI50 (A498 renal): 0.0398 µM
- TGI (A498 renal): 0.178 µM
- GI50 (A549 NSCLC): 1.55 µM
- TGI (A549 NSCLC): 16.2 µM
- GI50 (ACHN renal): 10.1 µM
- TGI (ACHN renal): 23.2 µM
- GI50 (BT-549 breast): 5 µM
- TGI (BT-549 breast): 19 µM
- GI50 (CAKI-1 renal): 0.721 µM
- TGI (CAKI-1 renal): 9.27 µM
- GI50 (CCRF-CEM leukemia): 15.9 µM
- TGI (CCRF-CEM leukemia): 51.3 µM
- GI50 (COLO 205 colon): 0.996 µM
- TGI (COLO 205 colon): 4.05 µM
- GI50 (DU-145 prostate): 12.7 µM
- TGI (DU-145 prostate): 27.4 µM
- GI50 (EKVX NSCLC): 12.9 µM
- TGI (EKVX NSCLC): 29.4 µM
- GI50 (HCC-2998 colon): 10.4 µM
- TGI (HCC-2998 colon): 22.5 µM
- GI50 (HCT-116 colon): 0.0966 µM
- TGI (HCT-116 colon): 4.11 µM
- GI50 (HCT-15 colon): 6.41 µM
- TGI (HCT-15 colon): 23.2 µM
- GI50 (HL-60(TB) leukemia): 5.78 µM
- TGI (HL-60(TB) leukemia): 35.7 µM
- GI50 (HOP-62 NSCLC): 0.779 µM
- TGI (HOP-62 NSCLC): 16.4 µM
- GI50 (HOP-92 NSCLC): 1.86 µM
- TGI (HOP-92 NSCLC): 15.3 µM
- GI50 (HS 578T breast): 12.5 µM
- TGI (HS 578T breast): 38.2 µM
- GI50 (HT29 colon): 2.49 µM
- TGI (HT29 colon): 14.7 µM
- GI50 (IGROV1 ovarian): 0.108 µM
- TGI (IGROV1 ovarian): 0.938 µM
- GI50 (K-562 leukemia): 2 µM
- TGI (K-562 leukemia): > 50.5 µM
- GI50 (KM12 colon): 14.6 µM
- TGI (KM12 colon): 29.6 µM
- GI50 (LOX IMVI melanoma): 7.05 µM
- TGI (LOX IMVI melanoma): 19.9 µM
- GI50 (M14 melanoma): 10.5 µM
- TGI (M14 melanoma): 23.7 µM
- GI50 (MALME-3M melanoma): 15.5 µM
- TGI (MALME-3M melanoma): 32.2 µM
- GI50 (MCF7 breast): 0.191 µM
- TGI (MCF7 breast): 11 µM
- GI50 (MDA-MB-231 breast): 12.5 µM
- TGI (MDA-MB-231 breast): 29.6 µM
- GI50 (MDA-MB-435): 13.7 µM
- TGI (MDA-MB-435): 28.5 µM
- GI50 (MOLT-4 leukemia): 17 µM
- TGI (MOLT-4 leukemia): 45.4 µM
- GI50 (NCI-H226 lung): 0.0702 µM
- TGI (NCI-H226 lung): 0.204 µM
- GI50 (NCI-H23 lung): 9.95 µM
- TGI (NCI-H23 lung): 25.3 µM
- GI50 (NCI-H460 lung): 0.306 µM
- TGI (NCI-H460 lung): 11.7 µM
- GI50 (NCI-H522 lung): 11.5 µM
- TGI (NCI-H522 lung): 25.7 µM
- GI50 (NCI/ADR-RES ovarian): 11.1 µM
- TGI (NCI/ADR-RES ovarian): 25.3 µM
- GI50 (OVCAR-3 ovarian): 0.605 µM
- TGI (OVCAR-3 ovarian): 5.31 µM
- GI50 (OVCAR-4 ovarian): 0.274 µM
- TGI (OVCAR-4 ovarian): 4.11 µM
- GI50 (OVCAR-5 ovarian): 0.171 µM
- TGI (OVCAR-5 ovarian): 0.689 µM
- GI50 (OVCAR-8 ovarian): 10.6 µM
- TGI (OVCAR-8 ovarian): 26.1 µM
- GI50 (PC-3 prostate): 13.3 µM
- TGI (PC-3 prostate): 29.5 µM
- GI50 (RPMI-8226 leukemia): 3.32 µM
- TGI (RPMI-8226 leukemia): 30.6 µM
- GI50 (RXF 393 renal): 4.71 µM
- TGI (RXF 393 renal): 18.9 µM
- GI50 (SF-268 CNS): 15 µM
- TGI (SF-268 CNS): 30.3 µM
- GI50 (SF-295 CNS): 1.01 µM
- TGI (SF-295 CNS): 15.8 µM
- GI50 (SF-539 CNS): 14.2 µM
- TGI (SF-539 CNS): 28.3 µM
- GI50 (SK-MEL-2 melanoma): 2.2 µM
- TGI (SK-MEL-2 melanoma): 16.2 µM
- GI50 (SK-MEL-28 melanoma): 13.3 µM
- TGI (SK-MEL-28 melanoma): 26.2 µM
- GI50 (SK-MEL-5 melanoma): 3.84 µM
- TGI (SK-MEL-5 melanoma): 17.7 µM
- GI50 (SK-OV-3 ovarian): 4.23 µM
- TGI (SK-OV-3 ovarian): 16.8 µM
- GI50 (SN12C renal): 10.6 µM
- TGI (SN12C renal): 25.8 µM
- GI50 (SNB-19 CNS): 14.5 µM
- TGI (SNB-19 CNS): 31.1 µM
- GI50 (SNB-75 CNS): 4.8 µM
- TGI (SNB-75 CNS): 20.9 µM
- GI50 (SR leukemia): 17.6 µM
- TGI (SR leukemia): 46.8 µM
- GI50 (SW-620 colon): 0.763 µM
- TGI (SW-620 colon): 16.5 µM
- GI50 (T-47D breast): 0.149 µM
- TGI (T-47D breast): 0.623 µM
- GI50 (TK-10 renal): 0.0795 µM
- TGI (TK-10 renal): 0.309 µM
- GI50 (U251 CNS): 0.867 µM
- TGI (U251 CNS): 14.5 µM
- GI50 (UACC-257 melanoma): 0.134 µM
- TGI (UACC-257 melanoma): 0.339 µM
- GI50 (UACC-62 melanoma): 0.0933 µM
- TGI (UACC-62 melanoma): 0.684 µM
- GI50 (UO-31 renal): 3.81 µM
- TGI (UO-31 renal): 17.7 µM
